Test [1] deals with T1, Kappa-type opioid receptor (Homo sapiens, UniProt P41145). Format: functional.
The target of another test is Beta-galactosidase (Escherichia coli, UniProt Q8VNN2). Format: functional.
The target of another test is Mu-type opioid receptor (Homo sapiens, UniProt P35372). As to the kind of experiment: HTS Image-Based Screen for Agonists of the MOR Receptor. [Related pubchem assays (depositor defined):AID1777, AID1785, AID1786, AID2133]. Format: functional.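 Also: imaging of beta-arrestin GFP recruitment into spots after receptor activation.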
Test [2] concerns the target T2, Delta-type opioid receptor (Homo sapiens, UniProt P41143). Description: HTS Image-Based Screen for Agonists of the DOR Receptor. [Related pubchem assays (depositor defined):AID1777, AID1786, AID2133]. Format: functional.
A further test deals with Paired box protein Pax-8 (Homo sapiens, UniProt Q06710). Description: inhibitors of PAX8-driven TPO luciferase reporter, dose response, RMG-I cells, cherry-pick (AID 687027).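 Also: luciferase reporter driven by Pax8 target thyroperoxidase promoter measured by SteadyGlo luminescence.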 Format: functional, cell-based.
For test [3], the target named is T1, Kappa-type opioid receptor. Format: functional. The source holds these as a separate data set.
Test [4] deals with T2, Delta-type opioid receptor. Description: HTS Image-Based Screen for Antagonists of the DOR Receptor. [Related pubchem assays (depositor defined):AID1777, AID1785, AID1786, AID2133]. Format: functional.
Test [5] has as its target T3, Ubiquitin-conjugating enzyme E2 N (Homo sapiens, UniProt P61088).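 Also: Dose-response confirmation in a TR-FRET assay detecting UBC13-driven polyubiquitin chain formation, inhibition measured.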
T3 sequence (P61088 whole entry): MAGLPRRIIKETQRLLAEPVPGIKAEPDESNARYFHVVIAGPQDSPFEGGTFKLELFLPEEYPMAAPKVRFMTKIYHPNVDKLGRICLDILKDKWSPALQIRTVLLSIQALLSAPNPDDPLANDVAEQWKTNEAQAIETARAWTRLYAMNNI
Format: functional.

For test [6], the target named is Lysine-specific demethylase 4A (Homo sapiens, UniProt O75164). Description: JMJD2A histone demethylase inhibitors, dose response, selectivity assay for GASC-1 inhibitor project, biochemical, DELFIA europium, cherry-picked samples (AID 488840).
A further test has as its target T4, Genome polyprotein (Hepatitis C virus, UniProt Q2Q167).
T4 sequence (Q2Q167 whole entry): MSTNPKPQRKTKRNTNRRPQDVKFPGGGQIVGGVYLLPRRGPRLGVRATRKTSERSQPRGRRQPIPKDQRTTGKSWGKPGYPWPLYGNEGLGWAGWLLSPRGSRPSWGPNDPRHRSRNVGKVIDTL
As to the kind of experiment: HCV core protein dimerization inhibitors, dose response, biochemical, TR-FRET (AID 2159).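 Also: blocks dimerization of HCV core protein measured by TR-FRET between tagged core106 pairs.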 The arrangement: species or system Hepacivirus hominis. (Time-resolved FRET reads energy transfer from a long-lived donor to a nearby acceptor.)

Test [7] has as its target T5, Induced myeloid leukemia cell differentiation protein Mcl-1 (Homo sapiens, UniProt Q07820). Format: functional.
In test [8] the target is T6, Voltage-gated N-type calcium channel alpha-1B subunit/Amyloid beta A4 precursor protein-binding family A member 1 (Homo sapiens, UniProt Q00975+Q02410). As to the kind of experiment: disruptors of Mint-PDZ/N-type channel peptide interaction – biochemical, HTRF, SAR follow-up (AID 2489). Format: functional.
T6 sequence (Q00975 whole entry): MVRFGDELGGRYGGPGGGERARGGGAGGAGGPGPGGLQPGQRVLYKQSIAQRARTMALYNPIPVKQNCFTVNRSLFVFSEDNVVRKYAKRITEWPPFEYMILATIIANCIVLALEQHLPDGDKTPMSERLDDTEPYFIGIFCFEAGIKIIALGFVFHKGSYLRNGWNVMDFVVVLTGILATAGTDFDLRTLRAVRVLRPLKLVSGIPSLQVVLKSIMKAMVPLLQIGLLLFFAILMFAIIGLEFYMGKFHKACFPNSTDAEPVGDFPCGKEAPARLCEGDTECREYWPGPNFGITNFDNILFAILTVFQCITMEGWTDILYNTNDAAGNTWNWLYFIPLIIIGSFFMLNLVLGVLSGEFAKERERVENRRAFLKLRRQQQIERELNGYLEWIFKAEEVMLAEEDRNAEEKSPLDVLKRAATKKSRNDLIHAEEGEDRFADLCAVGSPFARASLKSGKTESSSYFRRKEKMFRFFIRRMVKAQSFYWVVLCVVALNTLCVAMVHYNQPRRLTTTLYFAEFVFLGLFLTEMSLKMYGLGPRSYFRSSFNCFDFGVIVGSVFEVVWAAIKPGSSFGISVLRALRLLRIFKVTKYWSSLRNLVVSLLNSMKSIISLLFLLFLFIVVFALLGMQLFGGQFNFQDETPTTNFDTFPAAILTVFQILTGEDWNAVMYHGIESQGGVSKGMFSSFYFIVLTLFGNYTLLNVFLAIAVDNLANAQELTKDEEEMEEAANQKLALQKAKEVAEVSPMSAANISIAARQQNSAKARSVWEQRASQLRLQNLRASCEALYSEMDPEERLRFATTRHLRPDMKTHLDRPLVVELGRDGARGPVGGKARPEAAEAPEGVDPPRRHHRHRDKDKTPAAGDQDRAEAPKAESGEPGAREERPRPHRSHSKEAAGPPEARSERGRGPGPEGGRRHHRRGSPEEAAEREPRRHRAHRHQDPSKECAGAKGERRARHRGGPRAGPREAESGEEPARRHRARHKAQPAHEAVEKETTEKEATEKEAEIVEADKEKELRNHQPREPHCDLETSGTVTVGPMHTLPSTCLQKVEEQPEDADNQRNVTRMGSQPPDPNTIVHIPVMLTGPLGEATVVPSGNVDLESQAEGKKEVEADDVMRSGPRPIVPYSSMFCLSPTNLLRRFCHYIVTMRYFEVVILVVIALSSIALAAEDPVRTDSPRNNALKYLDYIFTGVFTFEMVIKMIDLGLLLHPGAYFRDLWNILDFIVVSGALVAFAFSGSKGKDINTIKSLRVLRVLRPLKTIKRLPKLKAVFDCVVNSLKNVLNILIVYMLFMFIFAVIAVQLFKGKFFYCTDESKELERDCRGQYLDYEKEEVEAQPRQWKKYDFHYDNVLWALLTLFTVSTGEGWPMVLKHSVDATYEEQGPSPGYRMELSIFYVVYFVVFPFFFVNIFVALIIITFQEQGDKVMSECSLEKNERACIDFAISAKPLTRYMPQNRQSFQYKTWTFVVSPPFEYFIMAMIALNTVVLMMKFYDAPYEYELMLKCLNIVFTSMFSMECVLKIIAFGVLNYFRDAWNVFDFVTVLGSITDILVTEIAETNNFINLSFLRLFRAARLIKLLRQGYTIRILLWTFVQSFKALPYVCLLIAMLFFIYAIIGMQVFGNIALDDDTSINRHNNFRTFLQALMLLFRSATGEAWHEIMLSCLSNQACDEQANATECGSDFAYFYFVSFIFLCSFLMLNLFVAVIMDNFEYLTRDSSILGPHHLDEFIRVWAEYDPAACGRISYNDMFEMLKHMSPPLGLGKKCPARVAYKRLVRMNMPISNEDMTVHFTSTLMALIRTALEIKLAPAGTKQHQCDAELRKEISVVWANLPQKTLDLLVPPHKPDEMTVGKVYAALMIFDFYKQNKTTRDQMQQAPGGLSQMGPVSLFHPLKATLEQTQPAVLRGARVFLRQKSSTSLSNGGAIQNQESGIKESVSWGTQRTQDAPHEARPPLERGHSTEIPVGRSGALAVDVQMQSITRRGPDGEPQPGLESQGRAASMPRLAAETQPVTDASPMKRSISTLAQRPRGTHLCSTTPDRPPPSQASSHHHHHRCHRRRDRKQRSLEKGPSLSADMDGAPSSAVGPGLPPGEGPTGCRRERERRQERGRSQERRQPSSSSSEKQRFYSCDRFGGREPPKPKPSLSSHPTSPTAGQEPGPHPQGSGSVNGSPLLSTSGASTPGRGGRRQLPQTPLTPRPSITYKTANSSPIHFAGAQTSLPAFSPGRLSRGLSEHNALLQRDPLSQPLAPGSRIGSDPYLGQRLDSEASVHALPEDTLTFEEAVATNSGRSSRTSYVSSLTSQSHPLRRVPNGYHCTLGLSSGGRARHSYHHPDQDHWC
T6 sequence (Q02410 whole entry): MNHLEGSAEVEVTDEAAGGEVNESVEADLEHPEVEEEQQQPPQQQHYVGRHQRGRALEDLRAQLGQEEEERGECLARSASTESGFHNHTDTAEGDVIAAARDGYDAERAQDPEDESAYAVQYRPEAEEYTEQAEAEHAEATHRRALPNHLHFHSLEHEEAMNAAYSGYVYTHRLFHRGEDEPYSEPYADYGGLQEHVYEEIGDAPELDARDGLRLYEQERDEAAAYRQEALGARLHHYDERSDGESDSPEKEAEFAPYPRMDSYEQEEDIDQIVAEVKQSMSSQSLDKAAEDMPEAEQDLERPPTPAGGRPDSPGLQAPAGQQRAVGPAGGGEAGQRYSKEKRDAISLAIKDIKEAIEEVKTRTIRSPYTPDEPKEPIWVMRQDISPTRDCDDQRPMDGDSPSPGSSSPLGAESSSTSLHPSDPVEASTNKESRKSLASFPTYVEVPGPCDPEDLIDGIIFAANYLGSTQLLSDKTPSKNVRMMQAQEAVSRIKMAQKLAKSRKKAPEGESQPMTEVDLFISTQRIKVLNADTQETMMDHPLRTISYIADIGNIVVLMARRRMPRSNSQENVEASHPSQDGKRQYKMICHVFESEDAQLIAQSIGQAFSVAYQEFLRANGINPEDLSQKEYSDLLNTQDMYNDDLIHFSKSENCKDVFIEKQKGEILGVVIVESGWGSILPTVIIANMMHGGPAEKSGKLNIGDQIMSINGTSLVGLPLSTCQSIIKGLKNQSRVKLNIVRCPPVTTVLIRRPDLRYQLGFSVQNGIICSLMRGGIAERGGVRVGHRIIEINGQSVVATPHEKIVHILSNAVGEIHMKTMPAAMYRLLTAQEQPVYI
Another test deals with Protein Rev (Human immunodeficiency virus type 1 group M subtype B (isolate WMJ22)(HIV-1), UniProt P05866). Description: HIV-1 Rev-RRE RNA binding disruptors, dose response, biochemical, protein-RNA interaction (AID 842). On the set-up: species or system Human immunodeficiency virus 1.
Protein Rev, sequence (P05866 whole entry): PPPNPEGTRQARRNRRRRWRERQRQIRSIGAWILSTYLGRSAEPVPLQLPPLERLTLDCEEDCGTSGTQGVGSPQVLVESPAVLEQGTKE
Test [9] concerns the target DNA (cytosine-5)-methyltransferase 1 (Homo sapiens, UniProt P26358). Description: DNMT1 methyltransferase inhibitors, confirmation, biochemical, fluorescent molecular beacon (AID 602386). Format: functional.
The target of test [10] is T6, Voltage-gated N-type calcium channel alpha-1B subunit/Amyloid beta A4 precursor protein-binding family A member 1. Format: protein assay.
Test [11] has as its target Protein-tyrosine kinase 2-beta (Homo sapiens, UniProt Q14289).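 Also: potency of inhibitors of PYK2 kinase phosphorylation of poly-GT substrate.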
For the next test, the target named is Bcl-2-like protein 1 (Homo sapiens, UniProt Q07817). Description: BCL-XL inhibitors, dose response, selectivity assay for MCL1 inhibitor project, biochemical, fluorescence polarization, 1536-well (AID 2218). A general note: Fluorescence polarisation rises when a labelled molecule tumbles more slowly, as on binding a larger partner.
For test [12], the target named is T6, Voltage-gated N-type calcium channel alpha-1B subunit/Amyloid beta A4 precursor protein-binding family A member 1. As to the kind of experiment: disruptors of Mint-PDZ/N-type channel peptide interaction – biochemical, HTRF, set 2, SAR follow-up (AID 434980). Format: functional.
Test [13] shares this target. Format: protein assay. The source holds these as a separate data set.
The target in test [14] is T5, Induced myeloid leukemia cell differentiation protein Mcl-1. Description: MCL1-BIM BH3 interaction inhibitors, dose response, biochemical, fluorescence polarization, BIM-BH3 peptide, 1536-well (AID 2217).
The target of test [15] is T7, Probable nicotinate-nucleotide adenylyltransferase (Staphylococcus aureus (strain N315), UniProt P65502). Format: functional, Staphylococcus aureus subsp. aureus N315. The conditions noted are these: read-out: IC50_Mean.
T7 sequence (P65502 whole entry): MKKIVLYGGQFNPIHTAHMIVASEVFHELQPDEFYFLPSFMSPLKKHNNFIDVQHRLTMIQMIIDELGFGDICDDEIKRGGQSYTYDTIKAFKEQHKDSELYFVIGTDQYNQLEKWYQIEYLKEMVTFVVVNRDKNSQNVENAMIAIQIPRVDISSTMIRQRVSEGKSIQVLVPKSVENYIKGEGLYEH
In test [16] the target is T7, Probable nicotinate-nucleotide adenylyltransferase. Format: functional, Staphylococcus aureus subsp. aureus N315.
For the next test, the target named is SUMO E1/E2 (Homo sapiens, UniProt P63279+Q9UBE0+Q9UBT2). Description: SAR analysis of SUMOylation using HTRF in an in-Vitro dose response assay. [Related pubchem assays (depositor defined):AID2006, AID2011, AID2018, AID2069, AID2658]. Format: functional.
SUMO E1/E2, sequence (Q9UBE0 whole entry): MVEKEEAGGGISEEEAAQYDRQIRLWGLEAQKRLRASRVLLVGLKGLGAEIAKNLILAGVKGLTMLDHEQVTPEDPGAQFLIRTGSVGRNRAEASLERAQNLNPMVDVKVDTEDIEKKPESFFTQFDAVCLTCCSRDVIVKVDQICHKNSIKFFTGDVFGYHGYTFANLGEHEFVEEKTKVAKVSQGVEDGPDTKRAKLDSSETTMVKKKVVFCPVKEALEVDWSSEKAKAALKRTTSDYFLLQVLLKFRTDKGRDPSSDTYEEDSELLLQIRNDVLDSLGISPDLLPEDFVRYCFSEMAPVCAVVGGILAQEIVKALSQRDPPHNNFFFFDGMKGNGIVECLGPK
SUMO E1/E2, sequence (Q9UBT2 whole entry): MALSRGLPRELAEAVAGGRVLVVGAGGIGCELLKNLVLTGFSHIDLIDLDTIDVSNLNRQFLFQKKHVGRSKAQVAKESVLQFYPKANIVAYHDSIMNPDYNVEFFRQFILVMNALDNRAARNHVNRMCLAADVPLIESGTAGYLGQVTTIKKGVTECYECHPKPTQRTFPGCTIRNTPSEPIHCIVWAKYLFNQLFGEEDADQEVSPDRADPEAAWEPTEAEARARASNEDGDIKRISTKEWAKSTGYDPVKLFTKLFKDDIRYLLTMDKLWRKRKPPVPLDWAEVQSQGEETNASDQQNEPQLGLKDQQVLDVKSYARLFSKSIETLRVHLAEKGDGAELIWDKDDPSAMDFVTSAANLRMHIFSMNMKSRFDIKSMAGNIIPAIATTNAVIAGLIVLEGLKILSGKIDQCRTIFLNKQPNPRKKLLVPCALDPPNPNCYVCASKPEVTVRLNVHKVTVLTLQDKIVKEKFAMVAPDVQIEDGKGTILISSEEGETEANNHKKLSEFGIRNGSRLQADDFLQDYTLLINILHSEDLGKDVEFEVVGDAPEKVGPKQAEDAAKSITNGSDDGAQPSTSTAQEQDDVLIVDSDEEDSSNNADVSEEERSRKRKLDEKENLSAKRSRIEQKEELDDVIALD
SUMO E1/E2, sequence (P63279 whole entry): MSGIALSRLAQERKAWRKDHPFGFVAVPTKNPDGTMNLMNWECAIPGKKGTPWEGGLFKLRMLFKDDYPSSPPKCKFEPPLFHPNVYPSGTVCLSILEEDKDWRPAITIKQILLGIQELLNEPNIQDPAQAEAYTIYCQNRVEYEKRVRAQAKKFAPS
Test [17] has as its target T8, G-protein coupled receptor 35 (Homo sapiens, UniProt Q9HC97). Description: SAR Analysis for the identification of Selective Antagonists of ERK1/2 Activity in GPR35-Overexpressing U2OS Cells. [Related pubchem assays: 2079, 2058 ]. Format: functional, cell-based.
Test [18] addresses T8, G-protein coupled receptor 35. As to the kind of experiment: GPR35 antagonists blocking zaprinast-driven arrestin recruitment, primary screen, imaging, U2OS, beta-arrestin-GFP, zaprinast agonist (AID 2058).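 Also: antagonist potency meaning inhibition of agonist-induced arrestin redistribution.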 Format: functional. For orientation: Activated receptors often draw arrestin, which recruitment assays turn into a signal.
The target of test [19] is G-protein coupled receptor 55 (Homo sapiens, UniProt Q9Y2T6). As to the kind of experiment: GPR55 antagonists, SAR follow-up, counter-screen for GPR35 antagonist project, imaging, image-based (AID 2397). Format: functional.
In test [20] the target is T9, Tyrosine-protein phosphatase non-receptor type 7 (Homo sapiens, UniProt P35236).
T9 sequence (P35236 whole entry): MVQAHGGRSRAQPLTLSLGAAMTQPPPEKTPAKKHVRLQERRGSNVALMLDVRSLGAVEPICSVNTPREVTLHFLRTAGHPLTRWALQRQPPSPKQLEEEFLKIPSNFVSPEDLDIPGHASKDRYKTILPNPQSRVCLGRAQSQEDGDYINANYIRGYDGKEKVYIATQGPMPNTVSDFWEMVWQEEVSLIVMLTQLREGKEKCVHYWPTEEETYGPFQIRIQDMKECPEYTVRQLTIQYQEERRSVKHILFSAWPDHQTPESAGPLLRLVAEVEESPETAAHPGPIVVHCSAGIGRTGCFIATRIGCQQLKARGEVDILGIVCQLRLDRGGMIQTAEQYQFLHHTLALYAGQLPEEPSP
Format: functional.

Test [21] deals with T10, Tyrosine-protein phosphatase non-receptor type 22 (Homo sapiens, UniProt Q9Y2R2). Format: functional.
Test [22] concerns the target T10, Tyrosine-protein phosphatase non-receptor type 22. Format: functional. The source holds these as a separate data set.
Test [23] concerns the target Nucleotide-binding oligomerization domain-containing protein 2 (Homo sapiens, UniProt Q9HC29). As to the kind of experiment: PubChem AID 2334. Format: functional.
The nature of test [24]: inhibitors of intracellular T. cruzi replication, confirmation, NIH3T3 host cells, beta-gal luminescence (AID 2044).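 Also: intracellular parasites grown in NIH/3T3 mouse fibroblasts as host cells; luminescent beta-galactosidase reporter signal from transgenic T. cruzi replicating inside host cells; inhibitors lower the luminescence signal.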 Format: functional, cell-based.
Test [25] deals with HEK293. As to the kind of experiment: cells. The conditions noted are these: Homo sapiens.
The test system of test [26] is HEK293. As to the kind of experiment: NOD2 signaling inhibitors in MDP-stimulated cells, cell-based, uHTS, luminescence (AID 2001). Format: functional. The conditions noted are these: Homo sapiens.
The next test deals with Tumor necrosis factor (Homo sapiens, UniProt P01375). Description: TNFa-triggered NF-kB activation inhibitors, SAR follow-up, cell-based, revised (AID 2337). Format: functional.
Test [27] in a line: cytotoxicity toward NIH3T3 fibroblasts, dose response, counter-screen, cell-based, ATP luminescence, mouse fibroblasts (AID 2010).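 Also: cells exposed to compound for about 90 hours before reading.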 Format: functional.
Test [28] deals with Nucleotide-binding oligomerization domain-containing protein 1 (Homo sapiens, UniProt Q9Y239). As to the kind of experiment: NOD1 signaling inhibitors, SAR follow-up, revised (AID 2333). Format: functional.
The test system of test [29] is HEK293. As to the kind of experiment: cells. The conditions noted are these: Homo sapiens. Format: functional, cell-based.
The subject of test [30] is HEK293. As to the kind of experiment: cells. The conditions noted are these: Homo sapiens. Format: functional, cell-based. This is another data set of the same source.
Test [31] deals with HEK293. Description: NOD1 signaling inhibitors, primary screen, cell-based, luminescence, uHTS (AID 1578). Format: functional. The conditions noted are these: Homo sapiens.

These results are taken from ChEMBL document CHEMBL1201862, “PubChem BioAssay data set” (2004).

Several values for one entry are separate records, joined by “and”; a condition that tells them apart may be missing. Equal values may be shown once. Activity calls are given as the source filed them.
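For IC50 Mean in this document: confirmatory dose-response retesting of NadD inhibitor hits first found in an ultra-high-throughput screen.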

T5 sequence (Q07820 whole entry): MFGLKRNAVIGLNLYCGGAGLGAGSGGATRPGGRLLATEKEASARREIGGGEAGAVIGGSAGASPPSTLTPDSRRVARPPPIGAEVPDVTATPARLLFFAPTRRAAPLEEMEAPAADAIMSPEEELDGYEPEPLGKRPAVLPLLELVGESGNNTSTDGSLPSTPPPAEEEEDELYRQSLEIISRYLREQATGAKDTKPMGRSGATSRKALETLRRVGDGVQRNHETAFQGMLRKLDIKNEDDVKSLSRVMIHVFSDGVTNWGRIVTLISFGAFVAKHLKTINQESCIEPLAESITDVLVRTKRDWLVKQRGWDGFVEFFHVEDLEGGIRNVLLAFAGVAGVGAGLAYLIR

For orientation: EC50 means the concentration giving half of the maximal effect. One may read the AC50 as the concentration at which the activity in the assay is half-maximal. As to `Cc1ccc(C(=O)N[C@@H](C)CN2C3=NC[C@@H](Cc4ccccc4)N3C[C@H]2Cc2ccc(O)cc2)cc1Br`, the IC50 was 3.16 µM (active) in test [1], 1.44 µM in test [3], > 32 µM (inactive) in [4] and > 20 µM (inactive) in test [5]. Also, the EC50 at Beta-galactosidase was > 31.5 µM (inactive); at Mu-type opioid receptor it was > 32 µM (inactive); in [2], 31.2 µM (inactive). Further, at Paired box protein Pax-8, the AC50 is 24.8 µM (active).
On to `O=C(NN=C1CCCCCCCCCCC1)c1cccc(S(=O)(=O)N2CCOCC2)c1`, for which the AC50 in test [6] is 18.1 µM (active).
Consider `O=C(N/N=C/c1cccc(F)c1)c1cc(-c2ccco2)nc2ccccc12`, for which the IC50 was > 49.8 µM (not active) at Genome polyprotein; 1.67 µM (active) in test [7]; > 56.8 µM (inactive) and 8.96 µM (active) in test [8]; > 79.4 µM (not active) on Protein Rev; 4.81 µM (active) in test [9]; 8.21 µM (active) in [10]. Besides, the IC50 is 2.25 µM (active) in [11]; > 109 µM (not active) against Bcl-2-like protein 1; 12.9 µM (active) and 4.79 µM (active) in test [12]; 3.18 µM (active) in test [13]; 7.19 µM (active) in [14]; 21.1 µM (active) in [15]. Besides, the IC50 was 7.33 µM (active) in [16]; 7.16 µM (active) and 9.07 µM (active) at SUMO E1/E2.
Regarding `CC(C)(C)c1ccc(OCCC(=O)NCCc2ccc(S(N)(=O)=O)cc2)cc1`, the IC50 in test [17] was 9.95 µM (active); in test [18] it was 0.929 µM (active); in test [19], > 32 µM (inactive).
In the case of `COc1ccc(N2CCN(CCOc3ccc4c(C)cc(=O)oc4c3)CC2)cc1`, the IC50 in test [20], in test [21] and in test [22] was > 79.4 µM (inactive) in each case.
In the case of `COc1ccc(C(=O)NC(=S)N(C)C2CCCCC2)cc1Br`, the IC50 is > 20 µM (inactive) in [23]; > 20 µM (inactive) in the test on HEK293 [25]; 6.75 µM (inactive) with HEK293 [26]; > 20 µM (inactive) at Tumor necrosis factor; > 20 µM (inactive) in test [28]; > 20 µM (inactive) in the test with HEK293 [29]. In the test on HEK293 [30], the IC50 is > 20 µM (inactive). Moreover, the EC50 in test [24] was 3.6 µM (active); in [27], 12.4 µM (active); in the test on HEK293 [31], > 20 µM (inactive).
